18 molecules from publication PMC12621043, “Un-LOK-ing a New Approach for Conformational Selective Targeting of STK10 (LOK)” (ACS Medicinal Chemistry Letters, 2025) can be followed below.

Molecules are shown by their SMILES.

Holding throughout (assay): DSF Tm panel
Holding throughout (type): binding
Common to all, as to settings: 10 μM compound

One assay has as its target T1, MERTK (Homo sapiens, UniProt Q12866).
T1 construct: purchased in-house DSF kinase panel (SGC-style construct names; the trailing letter is the construct ID)
T1 sequence (Q12866 570-864): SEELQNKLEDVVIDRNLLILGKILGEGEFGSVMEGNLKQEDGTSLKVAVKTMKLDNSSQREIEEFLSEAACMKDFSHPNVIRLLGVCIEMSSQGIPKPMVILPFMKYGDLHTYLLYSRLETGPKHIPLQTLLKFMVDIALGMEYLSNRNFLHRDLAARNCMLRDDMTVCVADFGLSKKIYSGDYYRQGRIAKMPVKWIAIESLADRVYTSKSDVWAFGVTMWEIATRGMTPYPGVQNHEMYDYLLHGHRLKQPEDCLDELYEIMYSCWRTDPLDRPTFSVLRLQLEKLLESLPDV

In another assay the target is T2, PDK4A (Homo sapiens, UniProt Q16654).
T2 construct: purchased in-house DSF kinase panel (SGC-style construct names; the trailing letter is the construct ID)

Another assay deals with T3, BRPF1B (Homo sapiens, UniProt P55201).
T3 construct: purchased in-house DSF kinase panel (SGC-style construct names; the trailing letter is the construct ID)
T3 sequence (P55201 1-1214): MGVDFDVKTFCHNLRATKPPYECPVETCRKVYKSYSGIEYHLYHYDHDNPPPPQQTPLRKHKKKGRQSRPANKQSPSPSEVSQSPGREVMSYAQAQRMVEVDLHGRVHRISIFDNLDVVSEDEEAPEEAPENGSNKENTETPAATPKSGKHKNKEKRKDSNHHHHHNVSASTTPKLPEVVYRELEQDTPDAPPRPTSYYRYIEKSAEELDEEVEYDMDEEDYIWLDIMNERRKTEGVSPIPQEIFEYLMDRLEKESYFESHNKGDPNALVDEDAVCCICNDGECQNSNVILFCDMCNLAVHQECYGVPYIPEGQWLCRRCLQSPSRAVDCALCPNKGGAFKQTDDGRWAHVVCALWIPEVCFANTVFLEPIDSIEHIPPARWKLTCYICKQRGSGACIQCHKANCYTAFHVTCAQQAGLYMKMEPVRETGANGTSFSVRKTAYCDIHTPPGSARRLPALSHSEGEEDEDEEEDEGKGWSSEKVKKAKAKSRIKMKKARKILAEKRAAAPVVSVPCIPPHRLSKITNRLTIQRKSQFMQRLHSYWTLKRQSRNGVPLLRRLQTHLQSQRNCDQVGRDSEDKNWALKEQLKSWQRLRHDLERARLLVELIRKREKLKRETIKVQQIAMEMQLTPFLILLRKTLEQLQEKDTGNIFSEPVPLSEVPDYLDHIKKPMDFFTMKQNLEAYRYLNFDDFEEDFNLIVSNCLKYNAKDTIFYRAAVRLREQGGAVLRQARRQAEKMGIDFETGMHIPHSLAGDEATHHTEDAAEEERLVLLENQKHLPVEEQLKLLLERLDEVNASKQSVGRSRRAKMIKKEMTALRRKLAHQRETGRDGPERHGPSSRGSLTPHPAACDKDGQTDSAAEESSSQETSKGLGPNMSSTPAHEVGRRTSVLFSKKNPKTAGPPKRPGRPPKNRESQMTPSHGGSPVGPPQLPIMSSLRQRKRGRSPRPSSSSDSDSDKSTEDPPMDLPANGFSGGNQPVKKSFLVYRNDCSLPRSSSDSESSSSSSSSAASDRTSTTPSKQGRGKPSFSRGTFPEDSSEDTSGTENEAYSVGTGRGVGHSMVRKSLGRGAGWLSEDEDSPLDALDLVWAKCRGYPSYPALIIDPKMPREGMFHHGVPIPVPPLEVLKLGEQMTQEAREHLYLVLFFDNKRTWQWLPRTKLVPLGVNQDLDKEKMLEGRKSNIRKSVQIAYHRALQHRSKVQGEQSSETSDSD

The target in the next assay is T4, CSNK1EA (Homo sapiens, UniProt P49674).
T4 construct: purchased in-house DSF kinase panel (SGC-style construct names; the trailing letter is the construct ID)
T4 sequence (P49674 1-294): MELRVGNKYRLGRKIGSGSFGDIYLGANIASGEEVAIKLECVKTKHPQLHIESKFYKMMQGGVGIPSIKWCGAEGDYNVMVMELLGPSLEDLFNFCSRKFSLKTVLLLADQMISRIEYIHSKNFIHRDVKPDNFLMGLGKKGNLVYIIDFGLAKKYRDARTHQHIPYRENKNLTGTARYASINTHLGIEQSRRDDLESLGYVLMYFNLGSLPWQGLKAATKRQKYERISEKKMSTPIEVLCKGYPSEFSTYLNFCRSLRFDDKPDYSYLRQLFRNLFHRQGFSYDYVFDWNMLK

Another assay has as its target T5, MAP2K7A (Homo sapiens, UniProt O14733).
T5 construct: purchased in-house DSF kinase panel (SGC-style construct names; the trailing letter is the construct ID)
T5 sequence (O14733 120-400): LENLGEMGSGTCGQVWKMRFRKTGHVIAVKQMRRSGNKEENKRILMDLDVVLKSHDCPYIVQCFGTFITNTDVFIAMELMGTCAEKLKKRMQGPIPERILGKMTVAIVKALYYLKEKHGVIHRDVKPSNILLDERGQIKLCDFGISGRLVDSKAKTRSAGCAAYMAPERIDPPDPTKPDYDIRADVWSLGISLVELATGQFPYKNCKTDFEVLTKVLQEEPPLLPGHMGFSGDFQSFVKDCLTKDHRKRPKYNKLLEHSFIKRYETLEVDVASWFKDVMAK

A word on the ΔTm: it is the change in melting temperature against a reference sample.

T2 sequence (Q16654 whole entry): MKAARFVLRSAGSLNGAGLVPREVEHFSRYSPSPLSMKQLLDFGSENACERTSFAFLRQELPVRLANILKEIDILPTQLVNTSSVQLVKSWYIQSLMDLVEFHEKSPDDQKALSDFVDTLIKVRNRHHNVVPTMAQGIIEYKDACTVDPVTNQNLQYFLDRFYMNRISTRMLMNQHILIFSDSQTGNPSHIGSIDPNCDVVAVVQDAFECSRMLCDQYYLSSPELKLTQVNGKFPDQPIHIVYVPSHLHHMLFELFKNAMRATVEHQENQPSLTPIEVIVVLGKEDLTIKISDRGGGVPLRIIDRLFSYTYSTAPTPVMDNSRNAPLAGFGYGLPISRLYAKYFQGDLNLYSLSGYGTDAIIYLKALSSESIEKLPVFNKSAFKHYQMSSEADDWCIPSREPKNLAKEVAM

For `O=C(NCc1ccccc1)Nc1ccc2cc1OCCOCCNc1ccn3ncc-2c3n1` [compound 16], the ΔTm at 10 µM is 1.4 °C on MERTK and -0.7 °C on PDK4A.
For the molecule `O=C(NCc1ccccc1Cl)Nc1ccc2cc1OCCOCCNc1ccn3ncc-2c3n1` [compound 17], the ΔTm at 10 µM at MERTK worked out at 1.6 °C; on PDK4A, 0.8 °C.
Regarding `O=C(NCc1cccc(Cl)c1)Nc1ccc2cc1OCCOCCNc1ccn3ncc-2c3n1` [compound 18], the ΔTm at 10 µM on MERTK came to 1.8 °C; on PDK4A it was 1 °C.
`O=C(NCc1ccc(Cl)cc1)Nc1ccc2cc1OCCOCCNc1ccn3ncc-2c3n1` [compound 19]: the ΔTm at 10 µM on MERTK is 2.5 °C; at PDK4A, 0.8 °C.
Taken in the same sequence, the figures for `O=C(NCc1ccc(Cl)cc1Cl)Nc1ccc2cc1OCCOCCNc1ccn3ncc-2c3n1` [compound 20] were 2.2 °C and 1.1 °C.
For `O=C(NCc1ccc(Cl)cc1F)Nc1ccc2cc1OCCOCCNc1ccn3ncc-2c3n1` [compound 21], the ΔTm at 10 µM on MERTK is 2.7 °C; on PDK4A, 1.1 °C.
On to `Cc1cc(Cl)ccc1CNC(=O)Nc1ccc2cc1OCCOCCNc1ccn3ncc-2c3n1` [compound 23], for which the ΔTm at 10 µM at MERTK was found to be 3.1 °C; on PDK4A, 0.6 °C.
For the molecule `Cc1cc(Br)ccc1CNC(=O)Nc1ccc2cc1OCCOCCNc1ccn3ncc-2c3n1` [compound 24], the figures for the ΔTm at 10 µM on BRPF1B, at CSNK1EA and at MAP2K7A were 1.6 °C, 0.7 °C and 0.3 °C, respectively.
`Cc1ccc(F)cc1CNC(=O)Nc1ccc2cc1OCCOCCNc1ccn3ncc-2c3n1` [compound 26]: the ΔTm at 10 µM on BRPF1B worked out at 1 °C; on CSNK1EA, 0.7 °C; on MAP2K7A, 0.1 °C.
Take `O=C(NCc1ccccc1C(F)(F)F)Nc1ccc2cc1OCCOCCNc1ccn3ncc-2c3n1` [compound 27]: the results for the ΔTm at 10 µM at BRPF1B, on CSNK1EA and on MAP2K7A were 1.9 °C, 0 °C and 1 °C, respectively.
For `O=C(NCc1ccc(C(F)(F)F)cc1)Nc1ccc2cc1OCCOCCNc1ccn3ncc-2c3n1` [compound 28], the ΔTm at 10 µM on BRPF1B is 2.2 °C; at CSNK1EA, -0.2 °C; at MAP2K7A, 1.1 °C.
For `COc1ccccc1CNC(=O)Nc1ccc2cc1OCCOCCNc1ccn3ncc-2c3n1` [compound 29], the ΔTm at 10 µM on BRPF1B is -0.1 °C; at CSNK1EA it was 0.7 °C; on MAP2K7A, 0.1 °C.
For the molecule `COc1cccc(CNC(=O)Nc2ccc3cc2OCCOCCNc2ccn4ncc-3c4n2)c1` [compound 30], the ΔTm at 10 µM amounted to 0.2 °C on BRPF1B, 0.7 °C on CSNK1EA and 0.1 °C on MAP2K7A.
For the molecule `COc1ccc(CNC(=O)Nc2ccc3cc2OCCOCCNc2ccn4ncc-3c4n2)cc1` [compound 31], the ΔTm at 10 µM on BRPF1B amounted to 1 °C; on CSNK1EA, 0.6 °C; at MAP2K7A, 0.5 °C.
Take `COc1ccc(CNC(=O)Nc2ccc3cc2OCCOCCNc2ccn4ncc-3c4n2)cc1F` [compound 32]: the shift in melting temperature (ΔTm) at 10 µM at BRPF1B turned out to be 1.5 °C; at CSNK1EA it was 0.3 °C; at MAP2K7A, 0.5 °C.
Taken in the same sequence, the figures for `COc1cc(CNC(=O)Nc2ccc3cc2OCCOCCNc2ccn4ncc-3c4n2)ccc1F` [compound 33] were 1.2 °C, 0.6 °C and 0 °C.
`C[C@H](NC(=O)Nc1ccc2cc1OCCOCCNc1ccn3ncc-2c3n1)c1ccccc1` [compound 34]: the ΔTm at 10 µM at BRPF1B came to 0.5 °C; at CSNK1EA, 0.4 °C; at MAP2K7A, 0 °C.
For the molecule `CN1CCN(C(=O)Nc2ccc3cc2OCCOCCNc2ccn4ncc-3c4n2)CC1` [compound 35], the ΔTm at 10 µM on MERTK came out at 0.4 °C; on PDK4A, 0.5 °C.
